Measurements published in patent US8507478B2, “Oxazolidinyl antibiotics” (Actelion Pharmaceuticals Ltd., priority 2008, dated 2013).
Converted amounts (≈) assume the structure as drawn.

System: M. catarrhalis A894
Test: MIC determination by microdilution in cation-adjusted Mueller-Hinton Broth
Assay type: cell-based
Conditions: Moraxella catarrhalis, microdilution method, CLSI M7-A7
Procedure: Minimal inhibitory concentrations (MICs; mg/l) were determined in cation-adjusted Mueller-Hinton Broth by a microdilution method following the description given in “Methods for Dilution Antimicrobial Susceptibility Tests for Bacteria that Grow Aerobically”, Approved standard, 7th ed., Clinical and Laboratory Standards Institute (CLSI) Document M7-A7, Wayne, Pa., USA, 2006. All Example compounds were tested against several Gram positive and Gram negative bacteria such as S. aureus, E. faecalis, S. pneumoniae, M catarrhalis, A. baumanii, E.coli or P. aeruginosa.

SMILES	MIC [µg/mL]
COc1ccc2ncc(=O)n(CC3CN(C[C@@H]4CN(c5ccc6c(c5)NC(=O)CO6)C(=O)O4)C3)c2c1 [Example 13, 6-{(R)-5-[3-(7-methoxy-2-oxo-2H-quinoxalin-1-ylmethyl)-azetidin-1-ylmethyl]-2-oxo-oxazolidin-3-yl}-4H-benzo[1,4]oxazin-3-one]	≤ 0.031
COc1ccc2ncc(=O)n(C3CCN(CC[C@@H]4CN(c5ccc6c(c5)NC(=O)CS6)C(=O)O4)CC3)c2n1 [Example 25, 6-methoxy-4-(1-{2-[(R)-2-oxo-3-(3-oxo-3,4-dihydro-2H-benzo[1,4]thiazin-6-yl)-oxazolidin-5-yl]-ethyl}-piperidin-4-yl)-4H-pyrido[2,3-b]pyrazin-3-one]	≤ 0.031
COc1ccc2ncc(=O)n(CC3CN(C[C@@H]4CN(c5ccc6c(c5)OCCO6)C(=O)O4)C3)c2c1 [Example 14, 1-{1-[(R)-3-(2,3-dihydro-benzo[1,4]dioxin-6-yl)-2-oxo-oxazolidin-5-ylmethyl]-azetidin-3-ylmethyl}-7-methoxy-1H-quinoxalin-2-one]	0.25 (≈ 0.522 µM)
COc1ccc2ncc(=O)n(CC3CN(C[C@@H]4CN(c5ccc6c(c5)NC(=O)CS6)C(=O)O4)C3)c2c1 [Example 4, 6-{(R)-5-[3-(7-methoxy-2-oxo-2H-quinoxalin-1-ylmethyl)-azetidin-1-ylmethyl]-2-oxo-oxazolidin-3-yl}-4H-benzo[1,4]thiazin-3-one]	≤ 0.031
COc1ccc2ccc(=O)n(C[C@@H]3CCN(C[C@@H]4CN(c5ccc6c(c5)NC(=O)CS6)C(=O)O4)C3)c2c1 [Example 17, 6-{(R)-5-[(R)-3-(7-methoxy-2-oxo-2H-quinolin-1-ylmethyl)-pyrrolidin-1-ylmethyl]-2-oxo-oxazolidin-3-yl}-4H-benzo[1,4]thiazin-3-one]	≤ 0.031
COc1ccc2c(c1)N(CC1CN(C[C@H]3CN(c4ccc5c(c4)NC(=O)CS5)C(=O)O3)C1)C(=O)CC2 [Example 11, 6-{(S)-5-[3-(7-methoxy-2-oxo-3,4-dihydro-2H-quinolin-1-ylmethyl)azetidin-1-ylmethyl]-2-oxo-oxazolidin-3-yl}-4H-benzo[1,4]thiazin-3-one]	≤ 0.031
COc1ccc2ccc(=O)n(CC3CN(C[C@@H]4CN(c5ccc6c(c5)NC(=O)CS6)C(=O)O4)C3)c2c1 [Example 2, 6-{(R)-5-[3-(7-methoxy-2-oxo-2H-quinolin-1-ylmethyl)-azetidin-1-ylmethyl]-2-oxo-oxazolidin-3-yl}-4H-benzo[1,4]thiazin-3-one]	≤ 0.031
COc1ccc2c(c1)N(CC1CN(C[C@@H]3CN(c4ccc5c(c4)NC(=O)CS5)C(=O)O3)C1)C(=O)CC2 [Example 10, 6-{(R)-5-[3-(7-methoxy-2-oxo-3,4-dihydro-2H-quinolin-1-ylmethyl)azetidin-1-ylmethyl]-2-oxo-oxazolidin-3-yl}-4H-benzo[1,4]thiazin-3-one]	≤ 0.031
COc1ccc2ncc(=O)n(C3CCN(C[C@@H]4CN(c5ccc(C)c(F)c5)C(=O)O4)CC3)c2n1 [Example 24, 4-{1-[(R)-3-(3-fluoro-4-methyl-phenyl)-2-oxo-oxazolidin-5-ylmethyl]-piperidin-4-yl}-6-methoxy-4H-pyrido[2,3-b]pyrazin-3-one]	≤ 0.031
COc1ccc2ncc(=O)n(C3CCN(CC[C@H]4CN(c5ccc6c(c5)NC(=O)CS6)C(=O)O4)CC3)c2n1 [Example 23, 6-methoxy-4-(1-{2-[(S)-2-oxo-3-(3-oxo-3,4-dihydro-2H-benzo[1,4]thiazin-6-yl)-oxazolidin-5-yl]-ethyl}-piperidin-4-yl)-4H-pyrido[2,3-b]pyrazin-3-one]	≤ 0.031
COc1ccc2ccc(=O)n(CC3(O)CCN(C[C@H]4CN(c5ccc6c(c5)NC(=O)CS6)C(=O)O4)C3)c2c1 (mixture of isomers) [Example 19, 6-{(S)-5-[(RS)-3-hydroxy-3-(7-methoxy-2-oxo-2H-quinolin-1-ylmethyl)pyrrolidin-1-ylmethyl]-2-oxo-oxazolidin-3-yl}-4H-benzo[1,4]thiazin-3-one]	≤ 0.031
COc1ccc2ccc(=O)n(CC3CN(CC[C@@H]4CN(c5ccc6c(c5)NC(=O)CS6)C(=O)O4)C3)c2c1 [Example 5, 6-((R)-5-{2-[3-(7-methoxy-2-oxo-2H-quinolin-1-ylmethyl)-azetidin-1-yl]-ethyl}-2-oxo-oxazolidin-3-yl)-4H-benzo[1,4]thiazin-3-one]	≤ 0.031
COc1ccc2ncc(=O)n(C3CCN(C[C@@H]4CN(c5ccc6c(c5)NC(=O)CS6)C(=O)O4)CC3)c2n1 [Example 15, 6-methoxy-4-[1-{(R)-2-oxo-3-(3-oxo-3,4-dihydro-2H-benzo[1,4]thiazin-6-yl)-oxazolidin-5-ylmethyl]-piperidin-4-yl}-4H-pyrido[2,3-b]pyrazin-3-one]	≤ 0.031
COc1ccc2ncc(=O)n(CC3CN(CC[C@@H]4CN(c5ccc6c(c5)NC(=O)CS6)C(=O)O4)C3)c2c1 [Example 6, 6-((R)-5-{2-[3-(7-methoxy-2-oxo-2H-quinoxalin-1-ylmethyl)-azetidin-1-yl]-ethyl}-2-oxo-oxazolidin-3-yl)-4H-benzo[1,4]thiazin-3-one]	≤ 0.031
COc1ccc2ccc(=O)n(CC3CCN(C[C@@H]4CN(c5ccc(C)c(F)c5)C(=O)O4)CC3)c2c1 [Example 9, 1-{1-[(R)-3-(3-fluoro-4-methyl-phenyl)-2-oxo-oxazolidin-5-ylmethyl]-piperidin-4-ylmethyl}-7-methoxy-1H-quinolin-2-one]	1 (≈ 2.09 µM)
COc1ccc2ccc(=O)n(CC3(O)CCN(C[C@@H]4CN(c5ccc6c(c5)NC(=O)CS6)C(=O)O4)C3)c2c1 (mixture of isomers) [Example 18, 6-{(R)-5-[(RS)-3-hydroxy-3-(7-methoxy-2-oxo-2H-quinolin-1-ylmethyl)pyrrolidin-1-ylmethyl]-2-oxo-oxazolidin-3-yl}-4H-benzo[1,4]thiazin-3-one]	≤ 0.031
COc1ccc2ccc(=O)n(CC3(O)CCN(CC[C@@H]4CN(c5ccc6c(c5)NC(=O)CS6)C(=O)O4)C3)c2c1 (mixture of isomers) [Example 21, 6-((R)-5-{2-[(RS)-3-hydroxy-3-(7-methoxy-2-oxo-2H-quinolin-1-ylmethyl)-pyrrolidin-1-yl]-ethyl}-2-oxo-oxazolidin-3-yl)-4H-benzo[1,4]thiazin-3-one]	≤ 0.031
COc1ccc2ccc(=O)n(CC3(O)CN(C[C@@H]4CN(c5ccc6c(c5)NC(=O)CS6)C(=O)O4)C3)c2c1 [Example 1, 6-{(R)-5-[3-hydroxy-3-(7-methoxy-2-oxo-2H-quinolin-1-ylmethyl)azetidin-1-ylmethyl]-2-oxo-oxazolidin-3-yl}-4H-benzo[1,4]thiazin-3-one]	≤ 0.031
COc1ccc2ccc(=O)n(CC3CN(C[C@@H]4CN(c5ccc6c(c5)OCCO6)C(=O)O4)C3)c2c1 [Example 3, 1-{1-[(R)-3-(2,3-dihydro-benzo[1,4]dioxin-6-yl)-2-oxo-oxazolidin-5-ylmethyl]-azetidin-3-ylmethyl}-7-methoxy-1H-quinolin-2-one]	0.063 (≈ 0.132 µM)
COc1ccc2c(c1)N(CC1CN(C[C@@H]3CN(c4ccc5c(c4)NC(=O)CO5)C(=O)O3)C1)C(=O)CC2 [Example 12, 6-{(R)-5-[3-(7-methoxy-2-oxo-3,4-dihydro-2H-quinolin-1-ylmethyl)azetidin-1-ylmethyl]-2-oxo-oxazolidin-3-yl}-4H-benzo[1,4]oxazin-3-one]	0.5 (≈ 1.02 µM)
COc1ccc2ccc(=O)n(CC3(O)CCN(CC[C@H]4CN(c5ccc6c(c5)NC(=O)CS6)C(=O)O4)C3)c2c1 (mixture of isomers) [Example 20, 6-((S)-5-{2-[(RS)-3-hydroxy-3-(7-methoxy-2-oxo-2H-quinolin-1-ylmethyl)-pyrrolidin-1-yl]-ethyl}-2-oxo-oxazolidin-3-yl)-4H-benzo[1,4]thiazin-3-one]	≤ 0.031
COc1ccc2ccc(=O)n(CC3CCN(C[C@@H]4CN(c5ccc6c(c5)NC(=O)CS6)C(=O)O4)CC3)c2c1 [Example 7, 6-{(R)-5-[4-(7-methoxy-2-oxo-2H-quinolin-1-ylmethyl)-piperidin-1-ylmethyl]-2-oxo-oxazolidin-3-yl}-4H-benzo[1,4]thiazin-3-one]	≤ 0.031
COc1ccc2ncc(=O)n(C3CCN(C[C@@H]4CN(c5ccc6c(c5)OCCO6)C(=O)O4)CC3)c2n1 [Example 22, 4-{1-[(R)-3-(2,3-dihydro-benzo[1,4]dioxin-6-yl)-2-oxo-oxazolidin-5-ylmethyl]-piperidin-4-yl}-6-methoxy-4H-pyrido[2,3-b]pyrazin-3-one]	≤ 0.031
COc1ccc2ncc(=O)n(C3CCN(C[C@@H]4CN(c5ccc6c(c5)NC(=O)CO6)C(=O)O4)CC3)c2n1 [Example 16, 6-methoxy-4-{1-[(R)-2-oxo-3-(3-oxo-3,4-dihydro-2H-benzo[1,4]oxazin-6-yl)-oxazolidin-5-ylmethyl]-piperidin-4-yl}-4H-pyrido[2,3-b]pyrazin-3-one]	≤ 0.031
COc1ccc2ccc(=O)n(CC3CCN(C[C@@H]4CN(c5ccc6c(c5)OCCO6)C(=O)O4)CC3)c2c1 [Example 8, 1-{1-[(R)-3-(2,3-dihydro-benzo[1,4]dioxin-6-yl)-2-oxo-oxazolidin-5-ylmethyl]-piperidin-4-ylmethyl}-7-methoxy-1H-quinolin-2-one]	1 (≈ 1.98 µM)
